Assay [1] concerns HeLa. Put plainly: Cytotoxicity against human HeLa cells assessed as reduction in cell viability at 1:1 CuCl2:compound molar ratio after 48 hrs by resazurin assay. The assay is classed as functional, cell-based. On the technique in general: The colour change of resazurin is a common sign of viable cells or microbes.
Assay [2] has as its system HeLa. The assay is described as follows: Ionophoric activity in human HeLa cells assessed as intracellular metal accumulation at 4.2 uM cotreated with Fe incubated for 6 hrs by ICP-AES analysis relative to control. The assay is classed as functional.
Assay [3] relates to HeLa. Put plainly: Ionophoric activity in human HeLa cells assessed as intracellular metal accumulation at 11.3 uM cotreated with Co incubated for 6 hrs by ICP-AES analysis relative to control. The assay is classed as functional.
Assay [4] relates to HeLa. The assay is described as follows: Ionophoric activity in human HeLa cells assessed as intracellular metal accumulation at 1.8 uM cotreated with Cu incubated for 6 hrs by ICP-AES analysis relative to control. The assay is classed as functional.
In assay [5] the test system is HeLa. Put plainly: Cytotoxicity against human HeLa cells assessed as reduction in cell viability after 48 hrs by resazurin assay. Type of assay: functional, cell-based.
Assay [6] concerns HeLa. The assay is described as follows: Ionophoric activity in human HeLa cells assessed as intracellular metal accumulation at 11.3 uM cotreated with Ni incubated for 6 hrs by ICP-AES analysis relative to control. The assay is classed as functional.
Assay [7] concerns HeLa. The assay is described as follows: Growth inhibition of human HeLa cells in presence of copper. Type of assay: functional, cell-based.
Assay [8] relates to HeLa. Put plainly: Growth inhibition of human HeLa cells. The assay is classed as functional, cell-based.
In assay [9] the test system is HeLa. Put plainly: Potency index, ratio of CQ IC50 to compound IC50 for human HeLa cells. Type of assay: functional.

On to `Oc1cccc2ccc(CCc3ccc4cccc(O)c4n3)nc12`, for which the IC50 (in general, the midpoint of a concentration-inhibition curve) with HeLa [1] came to 1800 nM; in the assay on HeLa [5], 23700 nM. Further, the “fold change (FC)” value worked out at 1.8 in the assay on HeLa [2], 2.1 in the assay with HeLa [3], 13.7 in the assay on HeLa [4] and 2.1 with HeLa [6].
As to `Cc1ccc(OS(=O)(=O)N2CCN(Cc3cc([N+](=O)[O-])c4cccnc4c3O)CC2)cc1`, the half-maximal inhibitory concentration (IC50) in the assay with HeLa [7] came to 60 nM; in the assay on HeLa [8], 710 nM. The “Ratio IC50” value in the assay on HeLa [9] was 26.
On to `Oc1cccc2cccnc12` [OXYQUINOLINE], for which, in the assay on HeLa [5], the IC50 is 13500 nM.

These data come from ChEMBL document CHEMBL4428040, “8-Hydroxyquinolines in medicinal chemistry: A structural perspective” (Eur J Med Chem, 2016).
